Test results published in publication PMC6213216, “AbeTx1 Is a Novel Sea Anemone Toxin with a Dual Mechanism of Action on Shaker-Type K^+ Channels Activation” (Marine Drugs, 2018).
Where two headings read alike, the source gives them in different places. Positions of bridges follow the written chain, without caps; N, C: chain ends. Residues, ends and D or L forms follow the SMILES beside them.

Key:
rKV1.1 = target: T1, rKV1.1 (Rattus norvegicus, UniProt P10499); assay: Two-electrode voltage-clamp on Xenopus laevis oocytes expressing rKV1.1; format: cell-based
T1 construct: expressed in transfected cells; host or cells: Xenopus laevis oocytes injected with cRNA
Procedure: (§1) The pharmacological effect of AbeTx1 was analyzed by heterologous expression of 12 voltage-gated potassium channels isoforms (rKV1.1, Genbank NM173095; rKV1.2, Genbank NM012970; hKV1.3, Genbank L23499; rKV1.4,Genbank NM012971; rKV1.5, Genbank NM012972; rKV1.6, Genbank NM575671; Shaker IR from Drosophila melanogaster, Genbank CG12348; rKV2.1, Genbank NM013186; hKV3.1, Genbank NM004976; rKV4.2, Genbank NM031730; rKV4.3, Genbank NM031739 and hERG, Genbank NM000238), and three voltage-gated sodium channel subtypes (rNaV1.2, Genbank NM012647; rNaV1.4, Genbank M26643 and BgNaV1.1, from Blattella germanica) (r, rat; h, human) in oocytes from Xenopus laevis. The linearized plasmids were transcribed using a T7 or SP6 mMESSAGE-mMACHINE transcription kit (Life Technologies, Austin, TX, USA). Oocytes were injected with 20–50 nL of cRNA at a concentration of 1 ng·nL^−1 using a microinjector (Drummond Scientific, Broomall, PA, USA). The oocytes were stored for 1–3 days at 16 °C until sufficient expression of voltage-gated ion channels was achieved. Oocytes were maintained in an ND96 solution (in mM: 96 NaCl, 2 KCl, 1.8 CaCl2, 2 MgCl2 and 5 HEPES; pH 7.4), supplemented with 50 µg·mL^−1 gentamicin sulfate.
(§2) Two-electrode voltage-clamp recordings were performed at room temperature (18–22 °C) using a Geneclamp 500 amplifier (Molecular Devices, Sunnyvale, CA, USA) controlled by a pClamp data acquisition system (Axon Instruments, Union City, CA, USA). ND96 was used as bath solution. Whole-cell currents from oocytes were recorded 1–3 days after injection. Voltage and current electrodes were filled with KCl (3 M). The resistance of both electrodes was kept between 0.8–1.0 MΩ. The elicited currents were filtered at 0.5 or 2 kHz using a four-pole low-pass Bessel filter. Leak subtraction was performed using a -P/4 protocol. KV1.1-KV1.6 and Shaker IR currents were evoked by 500 ms depolarization to 0 mV, followed by a 500 ms pulse to −50 mV, from a holding potential of −90 mV. KV2.1, KV3.1, KV4.2, and KV4.3 currents were elicited by 500 ms pulses to + 20 mV from a holding potential of −90 mV. Current traces of hERG channels were elicited by applying a +40 mV pulse for 2.5 s, followed by a step to −120 mV for 2.5 s. Sodium current traces were evoked by 100 ms depolarization steps from a holding potential of −90 mV to 0 mV. Concentration-response curves were constructed by adding different AbeTx1 or analogs concentrations directly to the bath solution. The percentage of the KV blockade was plotted against the logarithm of the applied concentrations and fitted with the Hill Equation (1):y = 100/[1 + (IC50/[toxin]) × h](1) where y is the amplitude of the toxin-induced effect, IC50 is the toxin concentration at half-maximal efficacy, [toxin] is the toxin concentration, and h is the Hill coefficient. To investigate the effects on the voltage dependence of activation, current traces were evoked by 10 mV depolarization steps from a holding potential of −90 mV. Data were normalized to the maximal K^+ current amplitude, plotted against prepulse potential, and fitted using the Boltzmann Equation (2):IK/Imax = [1 + (exp(Vg − V)/k] − 1(2) where Imax represents maximal potassium current (IK), Vg is the voltage corresponding to half-maximal current, and k is the slope factor. Each experimental data represents mean ± standard error of at least three oocytes (n ≥ 3) from different frogs. Effect of the toxin on current-voltage experiments was statistically examined by comparing the control condition and the presence of toxin using the Student’s paired t-test. P-values < 0.05 are considered to be statistically significant. Data were analyzed using Clampfit 10.4 (Molecular Devices, Sunnyvale, CA, USA) and Origin v8.1 software (Origin Lab, Northampton, MA, USA), under the institutional license of the University of São Paulo.

rKV1.6 = target: T2, rKV1.6 (Rattus norvegicus, UniProt P17659); assay: Two-electrode voltage-clamp on Xenopus laevis oocytes expressing rKV1.6; format: cell-based
T2 construct: expressed in transfected cells; host or cells: Xenopus laevis oocytes injected with cRNA
Procedure: as §1, §2

[1] = concentration-response curve, percentage blocked current fitted with Hill equation, TEVC oocytes, 0 mV from −90 mV, mean ± SE, n ≥ 3, SEM, read-out: KV1.1 IC50
[2] = concentration-response curve, percentage blocked current fitted with Hill equation, TEVC oocytes, 0 mV from −90 mV, mean ± SE, n ≥ 3, SEM, read-out: KV1.6 IC50

T1 sequence (P10499 whole entry): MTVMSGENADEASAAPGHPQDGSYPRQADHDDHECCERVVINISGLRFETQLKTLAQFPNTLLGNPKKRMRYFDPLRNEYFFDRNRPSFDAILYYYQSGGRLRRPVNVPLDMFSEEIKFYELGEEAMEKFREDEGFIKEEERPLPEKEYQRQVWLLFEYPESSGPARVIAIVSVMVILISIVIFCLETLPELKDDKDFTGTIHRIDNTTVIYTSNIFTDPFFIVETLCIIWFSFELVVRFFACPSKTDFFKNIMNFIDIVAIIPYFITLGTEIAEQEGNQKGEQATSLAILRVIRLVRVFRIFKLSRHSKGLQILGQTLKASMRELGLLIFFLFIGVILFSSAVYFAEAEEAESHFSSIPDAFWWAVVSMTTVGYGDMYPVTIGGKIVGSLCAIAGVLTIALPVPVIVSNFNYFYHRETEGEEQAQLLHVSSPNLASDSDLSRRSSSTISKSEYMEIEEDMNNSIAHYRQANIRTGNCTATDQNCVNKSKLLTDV
T2 sequence (P17659 whole entry): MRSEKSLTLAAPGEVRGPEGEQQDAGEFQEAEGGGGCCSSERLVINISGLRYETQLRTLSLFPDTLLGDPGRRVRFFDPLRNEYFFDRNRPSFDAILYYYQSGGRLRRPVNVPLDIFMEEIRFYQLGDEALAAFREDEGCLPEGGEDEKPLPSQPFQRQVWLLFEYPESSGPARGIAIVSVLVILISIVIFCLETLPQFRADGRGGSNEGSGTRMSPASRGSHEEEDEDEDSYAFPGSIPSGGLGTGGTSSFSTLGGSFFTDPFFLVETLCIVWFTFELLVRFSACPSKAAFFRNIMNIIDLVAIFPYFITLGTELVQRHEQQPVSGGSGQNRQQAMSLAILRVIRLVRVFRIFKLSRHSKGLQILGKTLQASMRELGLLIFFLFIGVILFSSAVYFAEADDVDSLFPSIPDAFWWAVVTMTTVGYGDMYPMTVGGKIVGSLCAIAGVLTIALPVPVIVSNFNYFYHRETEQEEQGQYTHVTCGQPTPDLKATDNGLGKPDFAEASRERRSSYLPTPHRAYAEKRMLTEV

CC[N+](CC)(CC)CC [TEA, tetraethylammonium, reference compound]
KV1.1 current reduced to (rKV1.1; 200 μM TEA alone in bath solution): 52.20 ± 1.74%
IC50 (rKV1.1; external TEA in bath solution, concentration stated as IC50, read-out: TEA IC50 on KV1.1): 200 µM
KV1.6 K+ currents reduced to (rKV1.6; 920 μM TEA alone in bath solution): 51.50 ± 0.65%
IC50 (rKV1.6; external TEA in bath solution, concentration stated as IC50, read-out: TEA IC50 on KV1.6): 920 µM

C[C@@H]1NC(=O)[C@H](CO)NC(=O)[C@@H]2CSSC[C@H](NC(=O)[C@H](CCCNC(=N)N)NC(=O)CNC1=O)C(=O)N[C@@H](CCCNC(=N)N)C(=O)N1CCC[C@H]1C(=O)N[C@@H](CCCCN)C(=O)N1CCC[C@H]1C(=O)N[C@@H](CC(N)=O)C(=O)N[C@H](C(=O)NCC(=O)O)CSSC[C@H](NC(=O)[C@@H](N)CCCNC(=N)N)C(=O)N[C@@H](CCCCN)C(=O)N[C@@H]([C@@H](C)O)C(=O)N2 [Lys7Ala] (H-RCKTCSAGRCRPKPNCG-OH; disulfide 2-16, 5-10)
IC50 (rKV1.1; [1]): 17.8 µM
IC50 (rKV1.6; [2]): 0.852 ± 0.09 µM

C[C@@H]1NC(=O)[C@@H](NC(=O)[C@@H](N)CCCNC(=N)N)CSSC[C@@H](C(=O)NCC(=O)O)NC(=O)[C@H](CC(N)=O)NC(=O)[C@@H]2CCCN2C(=O)[C@H](CCCCN)NC(=O)[C@@H]2CCCN2C(=O)[C@H](CCCNC(=N)N)NC(=O)[C@@H]2CSSC[C@H](NC(=O)[C@H]([C@@H](C)O)NC1=O)C(=O)N[C@@H](CO)C(=O)N[C@@H](CCCCN)C(=O)NCC(=O)N[C@@H](CCCNC(=N)N)C(=O)N2 [Lys3Ala] (H-RCATCSKGRCRPKPNCG-OH; disulfide 2-16, 5-10)
IC50 (rKV1.1; [1]): 27.5 µM
IC50 (rKV1.6; [2]): 18.9 µM

C[C@H](N)C(=O)N[C@H]1CSSC[C@@H](C(=O)NCC(=O)O)NC(=O)[C@H](CC(N)=O)NC(=O)[C@@H]2CCCN2C(=O)[C@H](CCCCN)NC(=O)[C@@H]2CCCN2C(=O)[C@H](CCCNC(=N)N)NC(=O)[C@@H]2CSSC[C@H](NC(=O)[C@H]([C@@H](C)O)NC(=O)[C@H](CCCCN)NC1=O)C(=O)N[C@@H](CO)C(=O)N[C@@H](CCCCN)C(=O)NCC(=O)N[C@@H](CCCNC(=N)N)C(=O)N2 [Arg1Ala] (H-ACKTCSKGRCRPKPNCG-OH; disulfide 2-16, 5-10)
IC50 (rKV1.1; [1]): 1.97 µM
IC50 (rKV1.6; [2]): 3.53 µM
